For four molecules, ring closure, yield of all isomers results are on record in patent US8377874.

Like-named read-outs stand apart in the source and are kept apart here.

For this data set the following is noted: rcm bond, Zhan catalyst 1B.

In the case of `CCOC(=O)[C@@]12C[C@H]1/C=C\CCCCC[C@H](NC(=O)OC(C)(C)C)C(=O)N1C[C@H](Oc3nccc4cc(OC)c(Br)cc34)C[C@H]1C(=O)N2`, the ring closure, yield of all isomers (from C=CCCCCC[C@H](NC(=O)OC(C)(C)C)C(=O)N1C[C@H](Oc2nccc3cc(OC)c(Br)cc23)C[C@H]1C(=O)N[C@]1(C(=O)OCC)C[C@H]1C=C, DCM, 10.15 mM, 40.0 °C, 2.0 h) was 70.1%.

As to `CCOC(=O)[C@@]12C[C@H]1/C=C\CCCCC[C@@H]1NC(=O)OCC(C)(C)CC=Cc3cc4c(nccc4cc3OC)O[C@@H]3C[C@@H](C(=O)N2)N(C3)C1=O`, for the setting “from C=CCC(C)(C)COC(=O)N[C@H]1CCCCC/C=C\[C@@H]2C[C@@]2(C(=O)OCC)NC(=O)[C@@H]2C[C@@H](Oc3nccc4cc(OC)c(C=C)cc34)CN2C1=O, DCM, 10.2 mM, 40.0 °C, 5.0 h”, the ring closure, yield of all isomers worked out at 80.8%.

Take `CCOC(=O)[C@@]12C[C@H]1C=CCCCCC[C@@H]1NC(=O)OCC(C)(C)CC=Cc3cc4c(cc(-c5ccccc5)nc4cc3OC)O[C@@H]3C[C@@H](C(=O)N2)N(C3)C1=O`: the ring closure, yield of all isomers (from C=CCCCCC[C@H](NC(=O)OCC(C)(C)CC=C)C(=O)N1C[C@H](Oc2cc(-c3ccccc3)nc3cc(OC)c(C=C)cc23)C[C@H]1C(=O)N[C@]1(C(=O)OCC)C[C@H]1C=C, DCM, 5.0 mM, 40.0 °C, 7.0 h) turned out to be 49%.

Molecule `COc1cc2nc(-c3ccccc3)cc3c2cc1C=CCCCOC(=O)N[C@H]1CCCCCC=C[C@@H]2C[C@@]2(C(=O)NS(=O)(=O)C2CC2)NC(=O)[C@@H]2C[C@H](CN2C1=O)O3` showed a ring closure, yield of all isomers (from C=CCCCCC[C@H](NC(=O)OCCCC=C)C(=O)N1C[C@H](Oc2cc(-c3ccccc3)nc3cc(OC)c(C=C)cc23)C[C@H]1C(=O)N[C@]1(C(=O)NS(=O)(=O)C2CC2)C[C@H]1C=C, 1,2-dichloroethane, 4.73 mM, 90.0 °C, 3.0 h) of 6.1%.
